These results are taken from patent US10407409B2, “6-(5-hydroxy-1H-pyrazol-1-yl)nicotinamide inhibitors of PHD” (Takeda Pharmaceutical Company Limited, priority 2013, dated 2019).

Structures are written as SMILES.

Test [1] deals with PHD2 enzyme (residues 181-417) (Homo sapiens (Human), UniProt Q9GZT9). Kind of test: Inhibition of PHD enzyme (LC/MS peptide hydroxylation assay). Type of test: biochemical. To be noted: PHD2 (residues 181-417) 5 nM, 60 min pre-incubation; -log(IC50), IC50 molar. In short, it runs like this:
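PHD2 (5 nM final) preincubated with inhibitor 60 min at RT in 50 mM HEPES, 50 mM KCl, 0.5 mM TCEP, 2 uM FeCl2, 0.1 mg/ml BSA, pH 7.3. Reaction started with biotin-peptide (1 uM), 2-oxoglutarate (2 uM), ascorbate (1 mM), quenched at 60 min; hydroxylated product by LC/MS, reported as pIC50.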

In test [2] the test system is HIF1a protein in H9c2 rat cardiomyocytes. The test is described as follows: Cell-based HIF-alpha stabilization assay (inhibition of PHD in cells). Particulars: Rattus norvegicus, H9c2, 24 h, 24 hrs compound incubation, HIF1a protein by ELISA, read-out: Inhibition of PHD in cells (pEC50) (converted). In short, it runs like this: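 Rat H9c2 cardiomyocytes, cultured 24 h, were treated 24 h with an 11-point serial dilution of compound. HIF1a in whole-cell lysates was quantified by ELISA as % of the maximal desferrioxamine response. EC50 came from curve fitting; EC50pos is the concentration reaching 50% of the desferrioxamine maximum.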

Chain of PHD2 enzyme (residues 181-417) (Q9GZT9 181-417): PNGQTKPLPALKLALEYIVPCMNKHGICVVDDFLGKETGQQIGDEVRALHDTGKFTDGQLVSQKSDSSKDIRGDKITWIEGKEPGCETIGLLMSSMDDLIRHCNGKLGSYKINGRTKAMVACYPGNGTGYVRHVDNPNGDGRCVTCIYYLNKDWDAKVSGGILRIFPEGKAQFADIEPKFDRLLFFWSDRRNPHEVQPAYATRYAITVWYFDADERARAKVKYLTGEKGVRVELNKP

For the compound `COCC[C@@H](C)NC(=O)c1ccc(-n2ncc(-c3ccc(C#N)cc3C)c2O)nc1` [Example 359, (R)-6-(4-(4-cyano-2-methylphenyl)-5-hydroxy-1H-pyrazol-1-yl)-N-(4-methoxybutan-2-yl)nicotinamide], the “PHD Inhibition (pIC50)” value in test [1] worked out at 8.45. For the same compound, the EC50 in test [2] is 537 nM.

On to `Cc1cc(C#N)c(F)cc1-c1cnn(-c2ccc(C(=O)N3CC4(CN(C)C4)C3)cn2)c1O` [Example 343, 2-fluoro-4-(5-hydroxy-1-(5-(6-methyl-2,6-diazaspiro[3.3]heptane-2-carbonyl)pyridin-2-yl)-1H-pyrazol-4-yl)-5-methylbenzonitrile], for which the “PHD Inhibition (pIC50)” value in test [1] came to 8.07. In addition, in test [2], the EC50 is 1150 nM.

`COc1cc(-c2cnn(-c3ccc(C(=O)N[C@H]4CC[C@@H](C)CC4)cn3)c2O)ccn1` [Example 52, 6-(5-hydroxy-4-(2-methoxypyridin-4-yl)-1H-pyrazol-1-yl)-N-((1s,4s)-4-methylcyclohexyl)nicotinamide]: the “PHD Inhibition (pIC50)” value in test [1] came out at 8.3. In test [2], the EC50 is 933 nM.

In the case of `COc1cc(-c2cnn(-c3ccc(C(=O)NC4CCN(C)CC4)cn3)c2O)ccn1` [Example 33, 6-(5-hydroxy-4-(2-methoxypyridin-4-yl)-1H-pyrazol-1-yl)-N-(1-methylpiperidin-4-yl)nicotinamide], in test [1], the “PHD Inhibition (pIC50)” value is 7.4. Moreover, in test [2], the EC50 is 1170 nM.

On to `Cc1cc(C#N)ccc1-c1cnn(-c2ccc(C(=O)NCC3CCN(C)CC3)cn2)c1O` [Example 94, 6-(4-(4-cyano-2-methylphenyl)-5-hydroxy-1H-pyrazol-1-yl)-N-((1-methylpiperidin-4-yl)methyl)nicotinamide], for which the “PHD Inhibition (pIC50)” value in test [1] was 7.9. The EC50 in test [2] was 93.3 nM.

Turning to `COCC1CCN(C(=O)c2ccc(-n3ncc(-c4ccc(C#N)cc4C)c3O)nc2)C1` (stereo not drawn) [Example 252, 4-(5-hydroxy-1-(5-(3-(methoxymethyl)pyrrolidine-1-carbonyl)pyridin-2-yl)-1H-pyrazol-4-yl)-3-methylbenzonitrile], the “PHD Inhibition (pIC50)” value in test [1] came to 8.3. Besides, the EC50 in test [2] is 263 nM.

Regarding `Cc1cc(C#N)c(F)cc1-c1cnn(-c2ccc(C(=O)N3CCN(C)[C@H](C)C3)cn2)c1O` [Example 401, (R)-4-(1-(5-(3,4-dimethylpiperazine-1-carbonyl)pyridin-2-yl)-5-hydroxy-1H-pyrazol-4-yl)-2-fluoro-5-methylbenzonitrile], in test [1], the “PHD Inhibition (pIC50)” value is on record as 8.44. Moreover, in test [2], the EC50 is 1580 nM.

As for `Cc1cc(C#N)ccc1-c1cnn(-c2ccc(C(=O)N(C)CC3CCN(C(C)C)C3)cn2)c1O` (stereo not drawn) [Example 362, 6-(4-(4-cyano-2-methylphenyl)-5-hydroxy-1H-pyrazol-1-yl)-N-((1-isopropylpyrrolidin-3-yl)methyl)-N-methylnicotinamide], the “PHD Inhibition (pIC50)” value in test [1] came to 7.80. The EC50 in test [2] is 525 nM.

Take `Cc1cc(C#N)ccc1-c1cnn(-c2ccc(C(=O)N(C)CC3CCCN(C)C3)cn2)c1O` (stereo not drawn) [Example 361, 6-(4-(4-cyano-2-methylphenyl)-5-hydroxy-1H-pyrazol-1-yl)-N-methyl-N-((1-methylpiperidin-3-yl)methyl)nicotinamide]: in test [1], the “PHD Inhibition (pIC50)” value is given as 7.76. Further, the EC50 in test [2] was 457 nM.

Consider `N#Cc1ccc(-c2cnn(-c3ccc(C(=O)N[C@H]4CC[C@@H](O)C4)cn3)c2O)cc1` [Example 258, 6-(4-(4-cyanophenyl)-5-hydroxy-1H-pyrazol-1-yl)-N-((1s,3r)-3-hydroxycyclopentyl)nicotinamide], for which, in test [1], the “PHD Inhibition (pIC50)” value was determined as 7.44. In test [2], the EC50 is 813 nM.

Take `Cc1cc(C#N)ccc1-c1cnn(-c2ccc(C(=O)N[C@H](C)C3CCOCC3)cn2)c1O` [Example 63, (R)-6-(4-(4-cyano-2-methylphenyl)-5-hydroxy-1H-pyrazol-1-yl)-N-(1-(tetrahydro-2H-pyran-4-yl)ethyl)nicotinamide]: in test [1], the “PHD Inhibition (pIC50)” value amounted to 7.25. Further, in test [2], the EC50 was 158 nM.

As for `N#Cc1ccc(-c2cnn(-c3ccc(C(=O)NCC4CCOCC4)cn3)c2O)c(Cl)c1` [Example 197, 6-(4-(2-chloro-4-cyanophenyl)-5-hydroxy-1H-pyrazol-1-yl)-N-((tetrahydro-2H-pyran-4-yl)methyl)nicotinamide], in test [1], the “PHD Inhibition (pIC50)” value amounted to 6.83. The EC50 in test [2] was 1580 nM.

Take `COc1cc(C#N)ccc1-c1cnn(-c2ccc(C(=O)NCC3CCOCC3)cn2)c1O` [Example 194, 6-(4-(4-cyano-2-methoxyphenyl)-5-hydroxy-1H-pyrazol-1-yl)-N-((tetrahydro-2H-pyran-4-yl)methyl)nicotinamide]: the “PHD Inhibition (pIC50)” value in test [1] is listed as 7.3. For the same compound, the EC50 in test [2] is 513 nM.

As for `COCCC(C)(C)NC(=O)c1ccc(-n2ncc(-c3ccc(C#N)cc3C)c2O)nc1` [Example 67, 6-(4-(4-cyano-2-methylphenyl)-5-hydroxy-1H-pyrazol-1-yl)-N-(4-methoxy-2-methylbutan-2-yl)nicotinamide], the “PHD Inhibition (pIC50)” value in test [1] was 7.11. For the same compound, in test [2], the EC50 was 219 nM.

In the case of `COCCC1(NC(=O)c2ccc(-n3ncc(-c4ccc(C#N)cc4C)c3O)nc2)CCCC1` [Example 356], the “PHD Inhibition (pIC50)” value in test [1] came to 8.16. For the same compound, in test [2], the EC50 was 977 nM.

With `Cc1cc(C#N)ccc1-c1cnn(-c2ccc(C(=O)N3CCC4(CN(C)C4)C3)cn2)c1O` [Example 293, 4-(5-hydroxy-1-(5-(2-methyl-2,6-diazaspiro[3.4]octane-6-carbonyl)pyridin-2-yl)-1H-pyrazol-4-yl)-3-methylbenzonitrile], the “PHD Inhibition (pIC50)” value in test [1] is given as 8.05. Further, the EC50 in test [2] is 324 nM.

`Cc1cc(C#N)ccc1-c1cnn(-c2ccc(C(=O)NCC3CN(C)CCO3)cn2)c1O` (stereo not drawn) [Example 101, 6-(4-(4-cyano-2-methylphenyl)-5-hydroxy-1H-pyrazol-1-yl)-N-((4-methylmorpholin-2-yl)methyl)nicotinamide]: in test [1], the “PHD Inhibition (pIC50)” value worked out at 8.1. Moreover, in test [2], the EC50 is 158 nM.

In the case of `N#Cc1ccc(-c2cnn(-c3ccc(C(=O)N4CCC[C@@H]4CN4CCCC4)cn3)c2O)cc1` [Example 364, (R)-4-(5-hydroxy-1-(5-(2-(pyrrolidin-1-ylmethyl)pyrrolidine-1-carbonyl)pyridin-2-yl)-1H-pyrazol-4-yl)benzonitrile], the “PHD Inhibition (pIC50)” value in test [1] is reported as 6.73. Also, the EC50 in test [2] is 7760 nM.

For the compound `Cc1cc(C#N)ccc1-c1cnn(-c2ccc(C(=O)N3CCN(C)[C@H](C)C3)cn2)c1O` [Example 392, (R)-4-(1-(5-(3,4-dimethylpiperazine-1-carbonyl)pyridin-2-yl)-5-hydroxy-1H-pyrazol-4-yl)-3-methylbenzonitrile], the “PHD Inhibition (pIC50)” value in test [1] was 8.20. Moreover, the EC50 in test [2] is 355 nM.

With `CCN(C(=O)c1ccc(-n2ncc(-c3ccc(C#N)cc3C)c2O)nc1)C1CCN(C)CC1` [Example 429, 6-(4-(4-cyano-2-methylphenyl)-5-hydroxy-1H-pyrazol-1-yl)-N-ethyl-N-(1-methylpiperidin-4-yl)nicotinamide], in test [1], the “PHD Inhibition (pIC50)” value was found to be 7.95. In test [2], the EC50 is 589 nM.

For the compound `COC[C@H]1CCC[C@H]1NC(=O)c1ccc(-n2ncc(-c3ccc(C#N)cc3C)c2O)nc1` [Example 103, 6-(4-(4-cyano-2-methylphenyl)-5-hydroxy-1H-pyrazol-1-yl)-N-((1R,2S)-2-(methoxymethyl)cyclopentyl)nicotinamide], the “PHD Inhibition (pIC50)” value in test [1] stood at 8.1. Also, the EC50 in test [2] is 178 nM.

In the case of `O=C(NCc1ccccc1)c1ccc(-n2ncc(-n3ccccc3=O)c2O)nc1` [Example 193, N-benzyl-6-(5-hydroxy-4-(2-oxopyridin-1(2H)-yl)-1H-pyrazol-1-yl)nicotinamide], the “PHD Inhibition (pIC50)” value in test [1] was 7.57. Also, in test [2], the EC50 is 2690 nM.

In the case of `Cc1cc(C#N)ccc1-c1cnn(-c2ccc(C(=O)NCCCO)cn2)c1O` [Example 125, 6-(4-(4-cyano-2-methylphenyl)-5-hydroxy-1H-pyrazol-1-yl)-N-(3-hydroxypropyl)nicotinamide], the “PHD Inhibition (pIC50)” value in test [1] came out at 7.19. Moreover, the EC50 in test [2] is 372 nM.

As to `CCCN1CCC(NC(=O)c2ccc(-n3ncc(-c4ccnc(OC)c4)c3O)nc2)CC1` [Example 24, 6-(5-hydroxy-4-(2-methoxypyridin-4-yl)-1H-pyrazol-1-yl)-N-(1-propylpiperidin-4-yl)nicotinamide], the “PHD Inhibition (pIC50)” value in test [1] turned out to be 7.04. In test [2], the EC50 was 10700 nM.

Regarding `N#Cc1ccc(-c2cnn(-c3ccc(C(=O)N4CCC(N5CCOCC5)C4)cn3)c2O)cc1` (stereo not drawn) [Example 351, 4-(5-hydroxy-1-(5-(3-morpholinopyrrolidine-1-carbonyl)pyridin-2-yl)-1H-pyrazol-4-yl)benzonitrile], in test [1], the “PHD Inhibition (pIC50)” value is listed as 7.67. Moreover, in test [2], the EC50 is 5370 nM.

In the case of `Cc1cc(C#N)c(F)cc1-c1cnn(-c2ccc(C(=O)N3CCN(C)C4(CC4)C3)cn2)c1O` [Example 399, 2-fluoro-4-(5-hydroxy-1-(5-(4-methyl-4,7-diazaspiro[2.5]octane-7-carbonyl)pyridin-2-yl)-1H-pyrazol-4-yl)-5-methylbenzonitrile], the “PHD Inhibition (pIC50)” value in test [1] stood at 8.63. Further, the EC50 in test [2] is 1700 nM.

As to `N#Cc1ccc(-c2cnn(-c3ccc(C(=O)NC4CCN(C5CC5)CC4)cn3)c2O)cc1` [Example 93, 6-(4-(4-cyanophenyl)-5-hydroxy-1H-pyrazol-1-yl)-N-(1-cyclopropylpiperidin-4-yl)nicotinamide], in test [1], the “PHD Inhibition (pIC50)” value was 7.08. The EC50 in test [2] is 871 nM.
